Two compounds from US20250352500A1, “USE OF PHENOLIC ACIDS DERIVATIVES IN TREATING ISCHEMIC STROKE” (LANZHOU UNIVERSITY, priority 2022, published 2025) can be followed below.

What all share (assay type): in vivo, male C57/BL mice
The subject of assay [1] is MCAO model mice. Description: Rotating rod (balance rod) test of motor coordination after ischemia-reperfusion. How it is done: (§1) Grouping and administration method: Male C57/BL mice weighing 23±1 g were randomly divided into sham operation group (SHAM), model group (MCAO), compound 2 group (100 mg/kg), and compound 1 group (50 mg/kg), with 10 mice in each group. Mice in the SHAM group underwent vascular isolation, but no […] was administered, and no treatment was given before or after surgery. The model group mice were constructed with MCAO models and were not treated before and after surgery. The treatment group was treated with compound 2 or compound 1 on the basis of the model group. Mice with a neurological score of 0 after reperfusion and those that died before 72 hours post-surgery were excluded. The administration time for animal behavior tests was seven times at 0 h, 1 day, 2 days, 3 days, 4 days, 5 days, and 6 days after reperfusion, while the administration time for other experiments was three times at 0 h, 1 day, and 2 days after reperfusion. The drug was administered through the tail vein, and the sham operation group and model group were given equal amounts of saline.
The balance rod test was used to test the motor coordination of mice. The experiment was divided into four groups: sham operation group (SHAM), model group (MCAO), compound 2 group and compound 1 group. The effects of compound 2 on the recovery of behavioral function in mice after ischemia-reperfusion were comprehensively analyzed. The rotating rod test can test the motor coordination ability of mice. The experimental procedure is set to gradually accelerate the speed of the rotating rod from 10 rpm to 40 rpm within 300 seconds. Record the time that the mouse stays on the rotating stick. The mice were trained 3 days in advance. Select mice that can stay on the rotating rod for about 300 seconds for the next experiment. The time that the mice spent on the rotating rod before the model was constructed was selected as the pre-operative test value. The trained mice were subjected to MCA occlusion for 60 minutes and then reperfusion. Mice in the SHAM group, MCAO group, Compound 2 group, and Compound 1 group underwent rotating rod testing on days 1, 3, 5, and 7 post-surgeries, respectively, and the duration of their stay on the rotating rod was recorded.
After reperfusion for 1 to 3 days, the motor coordination ability continued to decline, but gradually recovered after 3 days, but the degree of recovery was extremely low.

Assay [2] relates to MCAO model mice. In words: Body weight change after ischemia-reperfusion. How it is done:
as §1
At the same time, the weight change and survival rate of mice after ischemia-reperfusion were analyzed.

For the next assay, the system named is iba1. In words: iba1 immunofluorescence in brain tissue (microglia). The conditions noted are these: 72 h ischemia-reperfusion, three days of administration; compound 2 100 mg/kg, compound 1 50 mg/kg; MCAO group 303±23; mean±SEM, n=3. How it is done: as §1, with “The administration time for animal behavior tests was seven times at 0 h, 1 day, 2 days, 3 days, 4 days, 5 days, and 6 days after reperfusion, while the administration time for other experiments was three times at 0 h, 1 day, and 2 days after reperfusion. The drug was administered through the tail vein, and the sham operation group and model group were given equal amounts of saline.” left out
Microglia are resident phagocytic cells in the nervous system and are the primary defense system for stress and injury in central nervous cells. […] To investigate whether the compound has an effect on the activation and proliferation of microglia in the ischemia-reperfusion model, this study used immunofluorescence experiments to detect the fluorescence expression of iba1 in the brain tissues of the sham operation group (SHAM), model group (MCAO), compound 2 group, and compound 1 group. Then, the expression level of iba1 in microglia in brain tissue was detected by Western blot. […]

A further assay deals with COX2. In words: RT-qPCR of COX2 mRNA in brain tissue. The conditions noted are these: 72 h, three days of administration, compound 2 100 mg/kg, compound 1 50 mg/kg, P<0.001. How it is done: as §1, with “The administration time for animal behavior tests was seven times at 0 h, 1 day, 2 days, 3 days, 4 days, 5 days, and 6 days after reperfusion, while the administration time for other experiments was three times at 0 h, 1 day, and 2 days after reperfusion. The drug was administered through the tail vein, and the sham operation group and model group were given equal amounts of saline.” left out
(§2) To investigate the effect of compounds on the expression of inflammatory factors after ischemia-reperfusion, this study used immunofluorescence experiments to observe the expression of TNF-α, IL-1β, IL-6, iNOS, and COX2 proteins in brain tissue. […] The concentrations of TNF-α, IL-1β, and IL-6 in brain homogenate were detected by enzyme-linked immunosorbent assay (ELISA), and the expression level of TNF-α protein in brain tissue was detected by Western blot.
After 72 hours of ischemia-reperfusion, the mRNA expression levels of TNF-α, IL-1β, IL-6, iNOS, and COX2 in brain tissue were detected and analyzed by RT-qPCR. […]

The test system of a further assay is TNF-α. In words: ELISA of TNF-α in brain homogenate. The conditions noted are these: 72 h, three days of administration, compound 2 100 mg/kg, compound 1 50 mg/kg. How it is done: as §1, with “The administration time for animal behavior tests was seven times at 0 h, 1 day, 2 days, 3 days, 4 days, 5 days, and 6 days after reperfusion, while the administration time for other experiments was three times at 0 h, 1 day, and 2 days after reperfusion. The drug was administered through the tail vein, and the sham operation group and model group were given equal amounts of saline.” left out
as §2
(§3) After 72 hours of ischemia-reperfusion, the expression levels of inflammatory factors TNF-α, IL-1β, and IL-6 in the mouse brain homogenate were detected.
In general terms: In an ELISA, binding on a coated surface is turned into a signal by an enzyme label.

The subject of another assay is IL-6. Description: ELISA of IL-6 in brain homogenate. The conditions noted are these: 72 h, three days of administration, compound 2 100 mg/kg, compound 1 50 mg/kg. How it is done: as §1, with “The administration time for animal behavior tests was seven times at 0 h, 1 day, 2 days, 3 days, 4 days, 5 days, and 6 days after reperfusion, while the administration time for other experiments was three times at 0 h, 1 day, and 2 days after reperfusion. The drug was administered through the tail vein, and the sham operation group and model group were given equal amounts of saline.” left out
as §2, §3

As for `O=C(O)c1cc(OP(=O)(O)O)ccc1OP(=O)(O)O` [compound 2], the “Motor coordination ability (time on rotating rod) compared with model group (MCAO)” value with MCAO model mice [1] (at 5 and 7 days, compound 2 100 mg/kg tail vein, P<0.05) is listed as “significantly improved”. Further, the “Motor coordination (time on rotating rod) compared with model group (MCAO)” value in the assay on MCAO model mice [1] (at 7 days of reperfusion, compound 2 100 mg/kg tail vein, P<0.001) is “significantly improved”. Further, in the assay on MCAO model mice [1] (compound 2 100 mg/kg vs compound 1 50 mg/kg, P<0.001), the “Motor coordination ability (time on rotating rod) compared with the compound 1 group” value is “significantly improved”. In the assay on MCAO model mice [2] (7th day of reperfusion, 100 mg/kg tail vein), the “Body weight compared with MCAO group” value is given as “inhibited the decrease in body weight”. For the same compound, the “Number of iba1-positive cells” value in the assay with iba1 is 148±40 /mm^2. Moreover, the “COX2 mRNA expression compared with MCAO group” value in the assay on COX2 is reported as “significantly reduced”. The “Decrease in TNF-α expression compared with MCAO group” value with TNF-α is 40±10%. For the same compound, the “Decrease in IL-6 expression compared with MCAO group” value with IL-6 was found to be 40±10%.
With `O=C(O)c1cc(O)ccc1O` [compound 1], the “Motor coordination ability (time on rotating rod) compared with MCAO group” value in the assay with MCAO model mice [1] (compound 1 50 mg/kg tail vein, time not stated) is “improved”. For the same compound, the “Body weight compared with the compound 2 group” value in the assay on MCAO model mice [2] (7th day after reperfusion, compound 1 50 mg/kg vs compound 2 100 mg/kg, P<0.05) was “significantly decreased”. The “Number of iba1-positive cells” value in the assay on iba1 is 200±12 /mm^2. The “COX2 mRNA expression compared with MCAO group” value with COX2 is listed as “significantly reduced”. Further, the “Decrease in TNF-α expression compared with MCAO group” value with TNF-α is listed as “reduced to varying degrees”. The “Decrease in IL-6 expression compared with MCAO group” value in the assay on IL-6 is “reduced to varying degrees”.
